We go through 1 molecule from paper PMC6740193 (ACS Omega, 2019).

Molecules are shown by their SMILES.

This test deals with T1, 1-deoxy-D-xylulose-5-phosphate reductoisomerase (DXR) (Escherichia coli, UniProt P45568).
T1 sequence (P45568 1-398): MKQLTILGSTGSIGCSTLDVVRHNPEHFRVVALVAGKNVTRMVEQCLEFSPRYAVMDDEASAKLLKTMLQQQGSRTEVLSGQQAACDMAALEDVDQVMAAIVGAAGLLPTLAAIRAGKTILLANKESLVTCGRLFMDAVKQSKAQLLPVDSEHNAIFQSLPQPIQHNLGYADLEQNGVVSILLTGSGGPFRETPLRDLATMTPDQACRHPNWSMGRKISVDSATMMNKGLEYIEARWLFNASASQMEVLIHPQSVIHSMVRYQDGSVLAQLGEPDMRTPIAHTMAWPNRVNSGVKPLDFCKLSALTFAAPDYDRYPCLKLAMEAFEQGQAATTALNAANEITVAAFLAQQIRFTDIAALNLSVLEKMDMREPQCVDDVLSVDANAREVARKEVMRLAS
The experiment in a line: recombinant enzyme assay, NADPH consumption at […] nm. It is filed as biochemical.

Consider `O=P(O)(O)CCCB(O)O` [compound 4, 3-Borono Propyl Phosphonic Acid], for which the IC50 was 128 ± 3 µM.

As usually defined, the IC50 is the concentration that gives 50% inhibition.
